In PMC10223019, “Preclinical Evaluation of a PSMA-Targeting Homodimer with an Optimized Linker for Imaging of Prostate Cancer” (Molecules, 2023):
Where “and” joins values, the source holds several entries; their conditions need not be identical. Identical values can stand only once.

Legend:
[1] = Stability in phosphate-buffered saline (PBS), radio-HPLC; format: physicochemical; conditions: 24 h post-incubation, 37 °C, indium-111 labeled, intact fraction
Experimental: [^111In]In-22 or [^111In]In-30 (~10 MBq, 20 µL) was mixed with 80 μL of PBS (0.01 M, pH 7.4) and incubated at 37 °C for up to 24 h. A sample of the PBS solution was loaded directly onto the radio-HPLC at 1, 4, and 24 h post-incubation.

[2] = test system: PSMA expressing LS174T cells; assay: Internalization and cell uptake assay; format: cell-based, human; conditions: 2 h 37 °C
Experimental: LS174T human colon carcinoma cells transfected with human PSMA were obtained from Dr. Sandra Heskamp (Radboud UMC, Nijmegen). Cells were cultured in RPMI-1640 media supplemented with 2 mM glutamine, 10% fetal bovine serum (FBS) and 0.3 mg/mL G418 (Geneticin, Sigma Aldrich, St. Louis, MO, USA).
Cells were seeded (1.2 × 10^6 cells/well) and cultured to confluency for 24 h prior to experiments. We prepared 10^−9 M solutions of [^111In]In-PSMA-617, [^111In]In-22, and [^111In]In-30 in internalization media (RPMI, 20 mM HEPES, 1% BSA, pH 7.4). The media were removed from each well, and they were rinsed twice with PBS at rt. 2 mL of the radioactive compound was then added to each well and incubated at 37 °C for 2 h. For the internalization assay, the media containing radioactive compound were removed, and each well was washed twice with cold PBS. A total of 1 mL of Glycine buffer (50 mM glycine, 100 mM NaCl, pH 2.8) was added immediately and incubated for 10 min at rt. The glycine wash was then collected into counting tubes (membrane-bound fraction). An extra wash was performed and collected in the same tubes. A total of 1 mL of NaOH (1 M) was then added to each tube and left for 15 min at rt. The lysate (internalized fraction) was then collected in separate counting tubes, together with one extra NaOH wash. Data were normalized to 1,000,000 cells and percentage added dose.

[3] = test system: BALB/c nude mice bearing LS174T PSMA-positive tumor xenografts; assay: Ex vivo biodistribution studies; format: in vivo
Experimental: Animal experiments were performed in 8–10 weeks old male BALB/c nude mice (Janvier Labs, Le Genest-Saint-Isle, France). Animals were housed in individually ventilated cages (Blue line IVC, 4 mice per cage) under nonsterile standard conditions with cage enrichment present and free access to chlorophyll-free animal chow (Sniff GmbH, Soest, Germany) and water and acclimated for 1 week before experiments. Mice were subcutaneously inoculated with 4.0 × 10^6 LS174T cells in the right flank, diluted in 100 μL of cell suspension. Seven days after tumor cell inoculation, when xenografts were approximately 0.2–0.3 cm^3, the tracers were injected intravenously via the tail vein. All experiments were approved by the institutional Animal Welfare Committee and were conducted in accordance with the guidelines of the Revised Dutch Act on Animal Experimentation (WOD).
Mice were intravenously injected with ~1 nmol of either [^111In]In-PSMA-617, [^111In]In-22 or [^111In]In-30 with molar activity of 5 MBq/nmol for ex vivo biodistribution studies. Mice (n = 4/timepoint) were euthanized by cervical dislocation at 1, 4, and 24 h p.i. A block group was included, and mice were euthanized at 4 h p.i. Organs were collected in tubes and counted in the gamma counter, where the calibration factor was determined by measuring different known activities of indium-111.

[4] = Stability in mouse serum, radio-HPLC; format: in vitro ADME; conditions: 24 h post-incubation, 37 °C, indium-111 labeled, intact fraction
Experimental: [^111In]In-22 or [^111In]In-30 (~35 MBq, 70 µL) was mixed with 330 μL of mouse serum and incubated at 37 °C for up to 24 h. After 1, 4, and 24 h incubation, 50 μL of the mouse serum solution was added to a separate vial containing 50 µL of acetonitrile. The sample was centrifuged at 5000× g for 20 min. The supernatant was analyzed by radio-HPLC.

[5] = LogD7.4 by shake-flask method (PBS/n-octanol); format: physicochemical; conditions: LogD7.4, PBS pH 7.4/n-octanol, indium-111 labeled compound
Experimental: The distribution coefficients (LogD7.4 values) were determined by a shake-flask method, in which 2 μL (~0.5 MBq) of the labeling solution ([^111In]In-22 or [^111In]In-30) were added to an Eppendorf tube containing 1 mL of PBS (0.01 M, pH 7.4)/n-octanol (v/v, 1:1). After vigorous vortexing, the solution was centrifuged at 2500× g for 15 min for phase separation. Samples (3 × 10 μL) of the two phases were taken out and measured in a gamma counter. LogD7.4 values were calculated by using the following equation: LogD7.4 = log [(counts in octanol phase)/(counts in aqueous phase)] and the experiment was performed in triplicate.

[6] = 4 h p.i. block group (excess unlabeled PSMA ligand)

## CC(C)CC(NC(=O)C(Cc1ccccc1)NC(=O)C(CC(=O)O)NC(=O)CCCCCSC1=NNC(SCCCCCC(=O)NC(CC(=O)O)C(=O)NC(Cc2ccccc2)C(=O)NC(CC(C)C)C(O)CC(=O)NCCCCCC(=O)NCCCCC(NC(=O)NC(CCC(=O)O)C(=O)O)C(=O)O)=C2CCC(OC(=O)NCCCNC(=O)CN3CCN(CC(=O)[O-])CCN(CC(=O)[O-])CCN(CC(=O)[O-])CC3)CCCC12)C(O)CC(=O)NCCCCCC(=O)NCCCCC(NC(=O)NC(CCC(=O)O)C(=O)O)C(=O)O.[111In+3] (stereo not drawn) [[^111In]In-30]
[1]
  Stability in PBS (%): 90.8%
[2]; 10^-9 M, NaOH lysate
  Internalized fraction: 3.51 ± 0.68 % AD
[2]; 10^-9 M, glycine wash
  Membrane-bound uptake: 0.26 ± 0.09 % AD
[2]; 10^-9 M, normalized to 1,000,000 cells
  Total uptake: 3.79 ± 0.74 % AD
[2]
  Internalized fraction as share of total uptake (internalization): 92% and 92.6%
  Membrane-bound uptake as share of total uptake: 7.4%
[3]; 1 h p.i., i.v. ~1 nmol
  Blood uptake: 4.84 ± 1.44 % ID/g
  Bone uptake: 3.00 ± 0.53 % ID/g
  Heart uptake: 2.58 ± 0.79 % ID/g
  Intestines uptake: 0.87 ± 0.08 % ID/g
  Kidney uptake: 138.54 ± 1.44 % ID/g
  Liver uptake: 3.94 ± 0.26 % ID/g
  Lung uptake: 2.81 ± 0.36 % ID/g
  Muscle uptake: 1.13 ± 0.22 % ID/g
  Pancreas uptake: 1.47 ± 0.33 % ID/g
  Prostate uptake: 3.53 ± 2.05 % ID/g
  Skin uptake: 4.44 ± 1.06 % ID/g
  Spleen uptake: 3.30 ± 0.59 % ID/g
  Stomach uptake: 0.47 ± 0.34 % ID/g
  Tumor uptake: 4.95 ± 1.01 % ID/g
[3]; [6]
  Blood uptake: 0.78 ± 0.04 % ID/g
  Bone uptake: 1.27 ± 0.23 % ID/g
  Heart uptake: 0.82 ± 0.10 % ID/g
  Intestines uptake: 0.48 ± 0.03 % ID/g
  Kidney uptake: 120.93 ± 4.75 % ID/g
  Liver uptake: 1.84 ± 0.07 % ID/g
  Lung uptake: 0.84 ± 0.07 % ID/g
  Muscle uptake: 0.47 ± 0.08 % ID/g
  Pancreas uptake: 0.54 ± 0.07 % ID/g
  Prostate uptake: 0.94 ± 0.30 % ID/g
  Skin uptake: 1.42 ± 0.18 % ID/g
  Spleen uptake: 1.20 ± 0.14 % ID/g
  Stomach uptake: 0.33 ± 0.12 % ID/g
  Tumor uptake: 1.42 ± 0.14 % ID/g
[3]; 4 h p.i., i.v. ~1 nmol
  Blood uptake: 1.02 ± 0.29 % ID/g
  Bone uptake: 1.44 ± 0.54 % ID/g
  Heart uptake: 0.96 ± 0.22 % ID/g
  Intestines uptake: 0.92 ± 0.58 % ID/g
  Kidney uptake: 132.89 ± 11.12 % ID/g
  Liver uptake: 2.41 ± 0.35 % ID/g
  Lung uptake: 0.77 ± 0.52 % ID/g
  Muscle uptake: 0.64 ± 0.30 % ID/g
  Pancreas uptake: 0.66 ± 0.24 % ID/g
  Prostate uptake: 1.27 ± 0.69 % ID/g
  Skin uptake: 1.92 ± 0.49 % ID/g
  Spleen uptake: 1.40 ± 0.20 % ID/g
  Stomach uptake: 0.31 ± 0.08 % ID/g
  Tumor uptake: 2.94 ± 0.36 % ID/g
[3]; 24 h p.i.
  Tumor-to-muscle (T/M) ratio: 15
[3]; 24 h p.i., i.v. ~1 nmol
  Blood uptake: 0.09 ± 0.01 % ID/g
  Bone uptake: 0.60 ± 0.04 % ID/g
  Heart uptake: 0.21 ± 0.01 % ID/g
  Intestines uptake: 0.19 ± 0.06 % ID/g
  Kidney uptake: 26.86 ± 2.37 % ID/g
  Liver uptake: 0.80 ± 0.04 % ID/g
  Lung uptake: 0.28 ± 0.03 % ID/g
  Muscle uptake: 0.15 ± 0.03 % ID/g
  Pancreas uptake: 0.17 ± 0.00 % ID/g
  Prostate uptake: 0.40 ± 0.10 % ID/g
  Skin uptake: 0.77 ± 0.13 % ID/g
  Spleen uptake: 0.58 ± 0.04 % ID/g
  Stomach uptake: 0.11 ± 0.07 % ID/g
  Tumor uptake: 1.57 ± 0.17 % ID/g
[3]; at 1 and 4 h p.i.
  Tumor-to-muscle (T/M) ratio: 4–5
[4]
  Stability in Mouse Serum (%): 90.1%
[5]
  logD: −2.44 ± 0.07
